Measured values published in patent US12564547B2, “Compositions, formulations, and methods for skin treatment” (Oddity Labs, LLC, priority 2022, dated 2026).

System: human dermal fibroblasts
Assay: Human dermal fibroblast cells (hDFC) proliferation, cell viability assay (CellTiter-Glo, manual cell counting); also: test concentration or dose not given here
Format: cell-based
Settings: hDFCs proliferation; control is DMSO

Molecule | Activity (Percent Increase Proliferation of hFDPCs (%))
O=C(CSc1nnnn1-c1ccc(O)cc1)N1CCCCC1 [VII-36, 2-[1-(4-hydroxyphenyl)tetrazol-5-yl]sulfanyl-1-piperidin-1-ylethanone] | D (increased proliferation of hFDPCs equals to or larger than 8%)
Cc1ccsc1C(=O)NC(C)C [VI-2, 3-methyl-N-propan-2-ylthiophene-2-carboxamide] | B (increased proliferation of hFDPCs equals to or larger than 1% and less than 4%)
Cn1c(SCC(=O)N2CCCCC2)nnc1-c1ccccc1 [I-7, 2-[(4-methyl-5-phenyl-1,2,4-triazol-3-yl)sulfanyl]-1-piperidin-1-ylethanone] | B (increased proliferation of hFDPCs equals to or larger than 1% and less than 4%)
COc1ccccc1CN1CCNC(=O)C1CC(=O)N(C)C (stereo not shown) [VII-22, 2-[1-[(2-methoxyphenyl)methyl]-3-oxopiperazin-2-yl]-N,N-dimethylacetamide] | D (increased proliferation of hFDPCs equals to or larger than 8%)
CC1=NN(C=O)C(C)(C)C1 [VII-5, 3,5,5-trimethyl-4H-pyrazole-1-carbaldehyde] | D (increased proliferation of hFDPCs equals to or larger than 8%)
CC(C)CC(=O)NC(C)c1ccccc1 (stereo not shown) [II-5, 3-methyl-N-(1-phenylethyl)butanamide] | D (increased proliferation of hFDPCs equals to or larger than 8%)
CN(C)CN(C)C [VII-11, N,N,N′,N′-tetramethylmethanediamine] | D (increased proliferation of hFDPCs equals to or larger than 8%)
CCn1c(NN)nc2ccccc2c1=O [VII-24, 3-ethyl-2-hydrazinylquinazolin-4-one] | D (increased proliferation of hFDPCs equals to or larger than 8%)
NC(=O)C1CCCCC1NC(=O)c1ccc(Cl)cn1 (stereo not shown) [VII-21, N-(2-carbamoylcyclohexyl)-5-chloropyridine-2-carboxamide] | D (increased proliferation of hFDPCs equals to or larger than 8%)
COCCOCCCn1c(=O)[nH]c2ccccc2c1=O [V-5, 3-[3-(2-methoxyethoxy)propyl]-1H-quinazoline-2,4-dione] | D (increased proliferation of hFDPCs equals to or larger than 8%)
COc1ccc(CN2CCN(C(=O)CCn3ccnc3)CC2=O)cc1 [VII-32, 4-(3-imidazol-1-ylpropanoyl)-1-[(4-methoxyphenyl)methyl]piperazin-2-one] | A (increased proliferation of hFDPCs of less than 1%)
CN1CCCNS1(=O)=O [VII-9, 2-methyl-1,2,6-thiadiazinane 1,1-dioxide] | D (increased proliferation of hFDPCs equals to or larger than 8%)
COc1cc(OC)nc(OC)n1 [VII-14, 2,4,6-trimethoxypyrimidine] | B (increased proliferation of hFDPCs equals to or larger than 1% and less than 4%)
NC12CN3CN(CN(C3)C1)C2 [VII-4, 1,3,5-triazatricyclo[3.3.1.13,7]decan-7-amine] | D (increased proliferation of hFDPCs equals to or larger than 8%)
NC1CSCC1O (stereo not shown) [VII-3, 4-aminothiolan-3-ol] | D (increased proliferation of hFDPCs equals to or larger than 8%)
CC1CNCCN1 (stereo not shown) [VII-8, 2-methylpiperazine] | D (increased proliferation of hFDPCs equals to or larger than 8%)
CCNC(=O)NC1CN(Cc2ccccc2N(C)C)C[C@@H]1OC (stereo partly drawn) [VII-38, 1-[(4S)-1-[[2-(dimethylamino)phenyl]methyl]-4-methoxypyrrolidin-3-yl]-3-ethylurea] | D (increased proliferation of hFDPCs equals to or larger than 8%)
COCCNC(=O)c1ccc2[nH]c3c(c2c1)CCCC3 [IV-3, N-(2-methoxyethyl)-6,7,8,9-tetrahydro-5H-carbazole-3-carboxamide] | D (increased proliferation of hFDPCs equals to or larger than 8%)
COc1ccc(CNC(=O)C(=O)NC(C)c2ccccc2)cc1 (stereo not shown) [III-3, N-[(4-methoxyphenyl)methyl]-N′-(1-phenylethyl)oxamide] | B (increased proliferation of hFDPCs equals to or larger than 1% and less than 4%)
COC(=O)Cn1c(=O)[nH]c2ccccc2c1=O [V-4, methyl 2-(2,4-dioxo-1H-quinazolin-3-yl)acetate] | A (increased proliferation of hFDPCs of less than 1%)

Molecule | Activity (Percent Increase Proliferation of hFDPCs (%))
O=C(O)CNC(=O)c1ccc2[nH]c3c(c2c1)CCCC3 [IV-6, 2-(6,7,8,9-tetrahydro-5H-carbazole-3-carbonylamino)acetic acid] | B (increased proliferation of hFDPCs equals to or larger than 1% and less than 4%)
CC(NC(=O)C(=O)NC(C)c1ccccc1)c1ccccc1 (stereo not shown) [III-4, N,N′-bis(1-phenylethyl)oxamide] | B (increased proliferation of hFDPCs equals to or larger than 1% and less than 4%)
Cc1c(Br)c([N+](=O)[O-])nn1CC(=O)N1CCCCCC1 [VII-12, 1-(azepan-1-yl)-2-(4-bromo-5-methyl-3-nitropyrazol-1-yl)ethanone] | C (increased proliferation of hFDPCs equals to or larger than 4% and less than 8%)
CN(C)c1ccccc1CN1CCN(C(=O)N2CCOCC2)CC1 [VII-23, [4-[[2-(dimethylamino)phenyl]methyl]piperazin-1-yl]-morpholin-4-ylmethanone] | D (increased proliferation of hFDPCs equals to or larger than 8%)
CNC(=O)C(CC(C)C)NC(=O)c1sccc1OC (stereo not shown) [VI-3, 3-methoxy-N-[4-methyl-1-(methylamino)-1-oxopentan-2-yl]thiophene-2-carboxamide] | D (increased proliferation of hFDPCs equals to or larger than 8%)
CC(=O)OC(Cn1ccnc1)c1ccccc1 (stereo not shown) [VII-28, (2-imidazol-1-yl-1-phenylethyl) acetate] | A (increased proliferation of hFDPCs of less than 1%)
CCOC(Cn1ccnc1)OCC [VII-30, 1-(2,2-diethoxyethyl)imidazole] | D (increased proliferation of hFDPCs equals to or larger than 8%)
CC(O)CNC(=O)c1ccc2[nH]c3c(c2c1)CCCC3 (stereo not shown) [IV-4, N-(2-hydroxypropyl)-6,7,8,9-tetrahydro-5H-carbazole-3-carboxamide] | C (increased proliferation of hFDPCs equals to or larger than 4% and less than 8%)
CC1=C(/C=C/C(C)=C/C=C/C(C)=C/CO)C(C)(C)CCC1 [Retinol, reference compound] | B (increased proliferation of hFDPCs equals to or larger than 1% and less than 4%)
Nn1c(SCC(=O)N2CCCC2)nnc1C1CCCCC1 [I-4, 2-[(4-amino-5-cyclohexyl-1,2,4-triazol-3-yl)sulfanyl]-1-pyrrolidin-1-ylethanone] | C (increased proliferation of hFDPCs equals to or larger than 4% and less than 8%)
CC(=O)NC1CCN(Cc2ccccc2N(C)C)CC1 [VII-20, N-[1-[[2-(dimethylamino)phenyl]methyl]piperidin-4-yl]acetamide] | D (increased proliferation of hFDPCs equals to or larger than 8%)
COc1ccc(CCCNC(=O)C(C)C)cc1 [II-6, N-[3-(4-methoxyphenyl)propyl]-2-methylpropanamide] | C (increased proliferation of hFDPCs equals to or larger than 4% and less than 8%)
Nn1c(SCC(=O)N2CCCCC2)nnc1-c1ccccc1 [I-2, 2-[(4-amino-5-phenyl-1,2,4-triazol-3-yl)sulfanyl]-1-piperidin-1-ylethanone] | B (increased proliferation of hFDPCs equals to or larger than 1% and less than 4%)
O=C(CSc1nnc(SCC(=O)N2CCCC2)s1)N1CCCC1 [VII-35, 2-[[5-(2-oxo-2-pyrrolidin-1-ylethyl)sulfanyl-1,3,4-thiadiazol-2-yl]sulfanyl]-1-pyrrolidin-1-ylethanone] | C (increased proliferation of hFDPCs equals to or larger than 4% and less than 8%)
CCC(N)Cn1ccnc1 (stereo not shown) [VII-29, 1-imidazol-1-ylbutan-2-amine] | A (increased proliferation of hFDPCs of less than 1%)
CCN(CC)CC(=O)NC(C)c1ccccc1 (stereo not shown) [II-3, 2-(diethylamino)-N-(1-phenylethyl)acetamide] | A (increased proliferation of hFDPCs of less than 1%)
COCCN(CCCc1ccccc1)C(=O)NC(C)Cn1ccnc1 (stereo not shown) [VII-31, 3-(1-imidazol-1-ylpropan-2-yl)-1-(2-methoxyethyl)-1-(3-phenylpropyl)urea] | A (increased proliferation of hFDPCs of less than 1%)
CC1(C)CC(C(N)=O)C(C)(C)N1 (stereo not shown) [VII-17, 2,2,5,5-tetramethylpyrrolidine-3-carboxamide] | D (increased proliferation of hFDPCs equals to or larger than 8%)
C=CCn1c(SCC(=O)N2CCCCC2)nnc1-c1ccncc1 [I-6, 1-piperidin-1-yl-2-[(4-prop-2-enyl-5-pyridin-4-yl-1,2,4-triazol-3-yl)sulfanyl]ethanone] | C (increased proliferation of hFDPCs equals to or larger than 4% and less than 8%)
oxetan-3-amine [VII-13] | D (increased proliferation of hFDPCs equals to or larger than 8%)
